Consider 20 compounds from patent publication US20260001914A1, “MACROCYCLIC PEPTIDES TARGETING KRAS” (Merck Sharp & Dohme LLC, priority 2022, published 2026).

*1 amine or outer side, *2 acyl side, *3 side chain or, on linkers, in order; H or OH if unused. Where a SMILES comes first, the peptide text is derived from it. Bridges are numbered along the chain shown (N, C = ends). [ ]: non-standard residue; d: D form. The star is where a group is joined. cBu(1-CO,cis-3-CH2NH) = O=C([C@H]1C[C@@H](CN[*:1])C1)[*:2]; NMeNva(5-imidazol-1-yl) = CN[C@@H](CCCn1ccnc1)C(=O)O; Phe(4-guanidino) = N=C(N)Nc1ccc(C[C@H](N)C(=O)O)cc1; X60 = O=C([C@H](Cc1ccc(NC2=NCCN2)cc1)N[*:1])[*:2]; Ala(pyrimidin-5-yl) = N[C@@H](Cc1cncnc1)C(=O)O; NMePhe(3-Me) = CN[C@@H](Cc1cccc(C)c1)C(=O)O; X33 = O=C([C@H](Cc1ccnc(F)c1F)N[*:1])[*:2]; X51 = COc1cc(C[C@H](N[*:1])C(=O)[*:2])ncn1; X7 = C[C@H](N[*:1])C12CC(C(=O)[*:2])(C1)C2; NMeNva(5,5-F2) = CN[C@@H](CCC(F)F)C(=O)O; Ethyl(2-pyrrolidin-1-yl) = C1CCN(CC*)C1; Lys(N3) = [N-]=[N+]=NCCCC[C@H](N)C(=O)O; NMeAha = CN[C@@H](CCN=[N+]=[N-])C(=O)O; Nle(5,5-F2) = CC(F)(F)CC[C@H](N)C(=O)O; Phe(2-CN) = N#Cc1ccccc1C[C@H](N)C(=O)O; X2 = O=C([C@H](Cc1ccccc1F)O[*:1])[*:2]; 1Nal = N[C@@H](Cc1cccc2ccccc12)C(=O)O; Ala(cPent) = N[C@@H](CC1CCCC1)C(=O)O; Phe(2-F) = N[C@@H](Cc1ccccc1F)C(=O)O; NMe3Pal = CN[C@@H](Cc1cccnc1)C(=O)O; X1 = O=C(C12CC(CN[*:1])(C1)C2)[*:2]; Ala(cPr) = N[C@@H](CC1CC1)C(=O)O; NMeF = CN[C@@H](Cc1ccccc1)C(=O)O; PhLac = O=C(O)[C@@H](O)Cc1ccccc1; 3Pal = N[C@@H](Cc1cccnc1)C(=O)O; 4Pal = N[C@@H](Cc1ccncc1)C(=O)O; Ahp(2) = CCCCC[C@H](N)C(=O)O; Cba = N[C@@H](CC1CCC1)C(=O)O; hLeu = CC(C)CC[C@H](N)C(=O)O; αMeC = C[C@](N)(CS)C(=O)O; NMeA = CN[C@@H](C)C(=O)O; Nle = CCCC[C@H](N)C(=O)O

Chain of KRAS-G12D protein (P01116 1-188 isoform P01116-2 G12D): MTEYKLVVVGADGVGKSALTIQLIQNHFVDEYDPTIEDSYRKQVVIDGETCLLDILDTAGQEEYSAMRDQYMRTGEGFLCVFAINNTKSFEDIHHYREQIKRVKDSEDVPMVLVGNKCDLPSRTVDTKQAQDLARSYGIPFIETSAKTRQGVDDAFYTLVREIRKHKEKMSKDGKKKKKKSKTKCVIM

This assay has as its target KRAS-G12D protein (Homo sapiens, UniProt P01116, G12D). Briefly: SOS-mediated nucleotide exchange assay (BODIPY-GDP / Tb-streptavidin TR-FRET). Format: biochemical. (In TR-FRET formats the signal depends on donor and acceptor labels being close together.)
On to `CCCCC[C@@H]1NC(=O)[C@H](Cc2ccc(OC)cc2)NC(=O)[C@H](CC2CCC2)NC(=O)[C@H](Cc2ccc(NC(=N)N)cc2)NC(=O)[C@H](CCCNC(=N)N)NC(=O)[C@H](Cc2ccccc2)NC(=O)CSC[C@@](C)(C(N)=O)NC(=O)[C@H](Cc2ccccc2)N(C)C1=O` [compound 346, cyclo(F-R-Phe4Gn-cBuA-TyrOMe-Ahp-NMeF-aMeCl-ClAc)] ({CH2CO}-FR[Phe(4-guanidino)][Cba]Y(Me)[Ahp(2)][NMeF][αMeC]-NH2; thioether N-8), for which the EC50 (in general, the concentration that produces a half-maximal response) was 1.24 nM.
Compound `CC(C)CC[C@@H]1NC(=O)[C@H](Cc2ccnc(F)c2F)NC(=O)[C@H](CC2CC2)NC(=O)[C@H](Cc2cncnc2)NC(=O)[C@H](C)N(C)C(=O)[C@H](Cc2ccccc2)OC(=O)C23CC(CNC(=O)[C@H](Cc4ccccc4)N(C)C1=O)(C2)C3` [compound 293, cyclo(FLac-NMeA-PyrimAla-cPrA-4Pal23F2-hL-NMeF-amBCP)] (cyclo([Ala(cPr)][X33][hLeu][NMeF][X1][PhLac][NMeA][Ala(pyrimidin-5-yl)])) came in with an EC50 of 259 nM.
`CC(C)CC[C@@H]1NC(=O)[C@H](Cc2ccccc2F)NC(=O)[C@H](CC2CC2)NC(=O)[C@H](Cc2cncnc2)NC(=O)[C@H](CCC(F)F)N(C)C(=O)[C@H](Cc2ccccc2)OC(=O)C23CC(CNC(=O)[C@H](Cc4ccccc4)N(C)C1=O)(C2)C3` [compound 217, cyclo(FLac-NMeNvaF2-PyrimAla-cPrA-Phe2F-hL-NMeF-amBCP)] (cyclo([Ala(cPr)][Phe(2-F)][hLeu][NMeF][X1][PhLac][NMeNva(5,5-F2)][Ala(pyrimidin-5-yl)])) came in with an EC50 of 173 nM.
`CC(C)CC[C@@H]1NC(=O)[C@H](Cc2ccccc2F)NC(=O)[C@H](CC2CCC2)NC(=O)[C@H](Cc2cncnc2)NC(=O)[C@H](C)N(C)C(=O)[C@H](Cc2ccccc2)OC(=O)C23CC(CNC(=O)[C@H](Cc4ccccc4)N(C)C1=O)(C2)C3` [compound 134, cyclo(FLac-NMeA-PyrimAla-cBuA-Phe2F-hL-NMeF-amBCP)] (cyclo([Cba][Phe(2-F)][hLeu][NMeF][X1][PhLac][NMeA][Ala(pyrimidin-5-yl)])) came in with an EC50 of 6.47 nM.
As for `CCCC[C@@H]1NC(=O)[C@H](Cc2cncnc2)NC(=O)[C@H](CCCn2ccnc2)N(C)C(=O)[C@H](Cc2ccccc2)OC(=O)C23CC(CNC(=O)[C@H](Cc4ccccc4)N(C)C(=O)[C@H](CCCC)NC(=O)[C@H](Cc4ccccc4F)NC1=O)(C2)C3` (single isomer, unassigned) [compound 222, cyclo(FLac-NMeNvalmid-PyrimAla-Nle-Phe2F-Nle-NMeF-amBCP)], a half-maximal response (EC50) required 494 nM.
As for `Cc1cccc(C[C@H]2C(=O)NCC34CC(C3)(C4)C(=O)O[C@@H](Cc3ccccc3)C(=O)N(C)[C@@H](C)C(=O)N[C@@H](Cc3cncnc3)C(=O)N[C@@H](CC3CC3)C(=O)N[C@@H](Cc3ccccc3F)C(=O)N[C@@H](CCC(C)(F)F)C(=O)N2C)c1` [compound 275, cyclo(FLac-NMeA-PyrimAla-cPrA-Phe2F-Nle3F2-NMePhe3Me-amBCP)] (cyclo([Ala(cPr)][Phe(2-F)][Nle(5,5-F2)][NMePhe(3-Me)][X1][PhLac][NMeA][Ala(pyrimidin-5-yl)])), a half-maximal effect (EC50) was put at 1 nM.
As to `CCC[C@@H]1NC(=O)[C@H](Cc2ccc(O)cc2)NC(=O)[C@H](CC(C)C)NC(=O)[C@H](Cc2ccc(O)cc2)NC(=O)[C@H](CCCNC(=N)N)NC(=O)[C@H](Cc2ccccc2)NC(=O)CSC[C@H](C(N)=O)NC(=O)[C@H](Cc2ccccc2)N(C)C1=O` [compound 21, cyclo(F-R-Y-L-Y-Nva-NMeF-dCl-ClAc)], the EC50 was determined as 6420 nM.
`CCCC[C@@H]1NC(=O)[C@H](Cc2cccnc2)NC(=O)[C@H](CCN=[N+]=[N-])N(C)C(=O)[C@H](Cc2ccccc2)OC(=O)C23CC(CNC(=O)[C@H](Cc4cccnc4)N(C)C(=O)[C@H](CCCC)NC(=O)[C@H](Cc4ccccc4F)OC1=O)(C2)C3` [compound 238, cyclo(FLac-NMeDabN3-3Pal-Nle-F2FLac-Nle-NMe3Pal-amBCP)] (cyclo([3Pal][Nle][X2][Nle][NMe3Pal][X1][PhLac][NMeAha])) displayed an EC50 of 5590 nM.
`CCCC[C@@H]1NC(=O)[C@H](Cc2ccc(O)cc2)NC(=O)[C@H](CC(C)C)NC(=O)[C@H](Cc2ccc(O)cc2)NC(=O)[C@H](CCCNC(=N)N)NC(=O)[C@H](Cc2ccccc2)NC(=O)CSC[C@H](C(N)=O)NC(=O)[C@H](Cc2ccccc2)N(C)C1=O` [compound 18, cyclo(F-R-Y-L-Y-Nle-NMeF-dCl-ClAc)] came in with an EC50 of 825 nM.
`CCCC[C@@H]1NC(=O)[C@H](Cc2cncnc2)NC(=O)[C@H](C)N(C)C(=O)[C@H](Cc2ccccc2)OC(=O)C23CC(C2)(C3)[C@H](C)NC(=O)[C@H](Cc2cccnc2)N(C)C(=O)[C@H](CCCC)NC(=O)[C@H](Cc2ccccc2F)NC1=O` [compound 121, cyclo(FLac-NMeA-PyrimAla-Nle-Phe2F-Nle-NMe3Pal-SMeamBCP)] (cyclo([NMe3Pal][X7][PhLac][NMeA][Ala(pyrimidin-5-yl)][Nle][Phe(2-F)][Nle])) had an EC50 of 33.5 nM. Compared with the last compound, the EC50 is about 25-fold lower.
In the case of `CCCC[C@@H]1NC(=O)[C@H](Cc2ccc(NC3=NCCN3)cc2)NC(=O)[C@H](CCCNC(=N)N)NC(=O)[C@H](Cc2ccccc2)NC(=O)[C@H]2C[C@@H](CNC(=O)[C@H](Cc3ccccc3)N(C)C(=O)[C@H](CCCC)NC(=O)[C@H](Cc3ccc(OC)cc3)NC1=O)C2` [compound 207, cyclo(F-R-Phe4Gnc2-Nle-TyrOMe-Nle-NMeF-c3amCblc)] (cyclo(FR[X60][Nle]Y(Me)[Nle][NMeF][cBu(1-CO,cis-3-CH2NH)])), it took 15.6 nM to reach a half-maximal effect (EC50).
In the case of `CC(C)CC[C@@H]1NC(=O)[C@H](Cc2ccccc2F)NC(=O)[C@H](CC2CCCC2)NC(=O)[C@H](Cc2cncnc2)NC(=O)[C@H](C)N(C)C(=O)[C@H](Cc2ccccc2)OC(=O)C23CC(CNC(=O)[C@H](Cc4ccccc4)N(C)C1=O)(C2)C3` [compound 135, cyclo(FLac-NMcA-PyrimAla-cPeA-Phe2F-hL-NMeF-amBCP)] (cyclo([Ala(cPent)][Phe(2-F)][hLeu][NMeF][X1][PhLac][NMeA][Ala(pyrimidin-5-yl)])) it was 4.13 nM; in that of `CCCCC[C@@H]1NC(=O)[C@H](Cc2ccccc2C#N)NC(=O)[C@H](CC2CCC2)NC(=O)[C@H](Cc2cccnc2)NC(=O)[C@H](CCCNC(=N)N)NC(=O)[C@H](Cc2ccccc2)NC(=O)CSC[C@@](C)(C(N)=O)NC(=O)[C@H](Cc2ccccc2)N(C)C1=O` [compound 375, cyclo(F-R-3Pal-cBuA-Phe2CN-Ahp-NMeF-aMeCl-ClAc)] ({CH2CO}-FR[3Pal][Cba][Phe(2-CN)][Ahp(2)][NMeF][αMeC]-NH2; thioether N-8), 57.9 nM; in that of `CCCC[C@@H]1NC(=O)[C@H](Cc2ccncc2)NC(=O)[C@H](CCCNC(=N)N)NC(=O)[C@H](Cc2cccc3ccccc23)NC(=O)CSC[C@H](C(=O)O)NC(=O)[C@H](Cc2ccccc2)N(C)C(=O)[C@H](CCCC)NC(=O)[C@H](Cc2ccc(O)cc2)NC1=O` [compound 198, cyclo(INal-R-4Pal-Nle-Y-Nle-NMeF-dC-ClAc)] ({CH2CO}-[1Nal]R[4Pal][Nle]Y[Nle][NMeF][dC]-OH; thioether N-8), 299 nM.
In the case of `CCCC[C@@H]1NC(=O)[C@H](Cc2cncnc2)NC(=O)[C@H](CCCn2ccnc2)N(C)C(=O)[C@H](Cc2ccccc2)OC(=O)C23CC(CNC(=O)[C@H](Cc4ccccc4)N(C)C(=O)[C@H](CCCC)NC(=O)[C@H](Cc4ccccc4F)NC1=O)(C2)C3` (single isomer, unassigned) [compound 223, cyclo(FLac-NMeNvalmid-PyrimAla-Nle-Phe2F-Nle-NMeF-amBCP)] it was 25.3 nM; in that of `CCCCC[C@@H]1NC(=O)[C@H](Cc2ccc(OC)cc2)NC(=O)[C@H](CC2CCC2)NC(=O)[C@H](Cc2ccc(OCCN3CCCC3)cc2)NC(=O)[C@H](CCCNC(=N)N)NC(=O)[C@H](Cc2ccccc2)NC(=O)CSC[C@@](C)(C(N)=O)NC(=O)[C@H](Cc2ccccc2)N(C)C1=O` [compound 383, cyclo(F-R-TyrOEtPyr-cBuA-TyrOMe-Ahp-NMeF-aMeCl-ClAc)] ({CH2CO}-FRY(Ethyl(2-pyrrolidin-1-yl))[Cba]Y(Me)[Ahp(2)][NMeF][αMeC]-NH2; thioether N-8), 9.79 nM.
Regarding `COc1ccc(C[C@@H]2NC(=O)[C@H](CC3CCC3)NC(=O)[C@H](Cc3cccnc3)NC(=O)[C@H](CCCNC(=N)N)NC(=O)[C@H](Cc3ccccc3)NC(=O)CSC[C@](C)(C(N)=O)NC(=O)[C@@H]3CCCCCCC[C@H](NC2=O)C(=O)N3C)cc1` [SEQ ID NO: 192, cyclo(F-R-3Pal-cBuA-TyrOMe-AheNMeHag-aMeC-C1Ac)], a half-maximal effect (EC50) was put at 127 nM.
As to `CCCC[C@@H]1NC(=O)[C@H](Cc2cccnc2)NC(=O)[C@H](C)N(C)C(=O)[C@H](Cc2ccccc2)OC(=O)C23CC(CNC(=O)[C@H](Cc4cccnc4)N(C)C(=O)[C@H](CCCC)NC(=O)[C@H](Cc4ccccc4F)NC1=O)(C2)C3` [compound 244, cyclo(FLac-NMeA-3Pal-Nle-Phe2F-Nle-NMe3Pal-amBCP)] (cyclo([3Pal][Nle][Phe(2-F)][Nle][NMe3Pal][X1][PhLac][NMeA])), the EC50 was determined as 36 nM.
For `CCCC[C@@H]1NC(=O)[C@H](Cc2cccnc2)NC(=O)[C@H](CCCn2ccnc2)N(C)C(=O)[C@H](Cc2ccccc2)N(C)C(=O)[C@H]2C[C@@H](CNC(=O)[C@H](Cc3cccnc3)N(C)C(=O)[C@H](CCCCN=[N+]=[N-])NC(=O)[C@H](Cc3ccccc3F)NC1=O)C2` [compound 157, cyclo(NMeF-NMeNvalmid-3Pal-Nle-Phe2F-LysN3-NMe3Pal-c3amCblc)] (cyclo([3Pal][Nle][Phe(2-F)][Lys(N3)][NMe3Pal][cBu(1-CO,cis-3-CH2NH)][NMeF][NMeNva(5-imidazol-1-yl)])) the value was 7760 nM; for `CCCC[C@@H]1NC(=O)[C@H](Cc2cc(OC)ncn2)NC(=O)[C@H](C)N(C)C(=O)[C@H](Cc2ccccc2)OC(=O)C23CC(CNC(=O)[C@H](Cc4ccccc4)N(C)C(=O)[C@H](CCCC)NC(=O)[C@H](Cc4ccccc4F)NC1=O)(C2)C3` [compound 306, cyclo(FLac-NMeA-Ala6Pyrim4OMe-Nle-Phe2F-Nle-NMeF-amBCP)] (cyclo([NMeA][X51][Nle][Phe(2-F)][Nle][NMeF][X1][PhLac])), 7000 nM.
